From patent publication US6358885B1, “Substituted phenylheterocyclic herbicides” (Mississippi State University, priority 1992, dated 2002) come the findings set out here.

For test [1], the system named is Japonica rice. Briefly: Test D paddy water application plant response rating 0 to 100. Type of test: in vivo, Oryza sativa. Particulars: 0 to 100 scale, approx. 21 days. The text has this: (§1) Plastic pots were partially filled with silt loam soil. The soil was then saturated with water. […] After planting, water levels were raised to 3 cm above the soil surface and maintained at this level throughout the test. Chemical treatments were formulated in a non-phytotoxic solvent and applied directly to the paddy water. Treated plants and controls were maintained in a greenhouse for approximately 21 days, after which all species were compared to controls and visually evaluated. […] A dash (-) response means no test result.

Test [2] has as its system barnyardgrass. Described as above. Type of test: in vivo, Echinochloa crus-galli. Particulars: 0 to 100 scale, approx. 21 days.
Excerpt: as §1

In the next test the test system is duck salad. Described as above. Conditions: 0 to 100 scale, approx. 21 days. In kind it is in vivo, Heteranthera limosa.
Excerpt: as §1

The next test has as its system umbrella sedge. Described as above. In kind it is in vivo, Cyperus difformis. Conditions: 0 to 100 scale, approx. 21 days.
Excerpt: as §1

The subject of a further test is arrowhead. The test is described as above. In kind it is in vivo, Sagittaria spp. Conditions: 0 to 100 scale, approx. 21 days.
Excerpt: as §1

The test system of test [3] is Japonica rice. As to the kind of experiment: Test E paddy water application plant response rating 0 to 100. Type of test: in vivo, oryza sativa. Conditions: Flood, 0 to 100 scale, approx. 21 days. The source says:
(§2) Plastic pots were partially filled with silt loam soil. […] At testing, the water level for all plantings was raised to 2 cm above the soil surface. Chemical treatments were formulated in a non-phytotoxic solvent and applied directly to the paddy water. Treated plants and controls were maintained in a greenhouse for approximately 21 days, after which all species were compared to controls and visually evaluated. […] A dash (-) response means no test result.

Test [4] concerns barnyardgrass. The description is as above. Type of test: in vivo, Echinochloa crus-galli. Conditions: Flood, 0 to 100 scale, approx. 21 days.
Excerpt: as §2

For `CC(C)N1C(=O)COc2cc(F)c(-c3nn4c(c3Cl)CCCC4)cc21` [Compound 31], the “Japonica rice plant response rating” value in the test on Japonica rice [1] (Rate 4 g/ha) came out at 10; in the test on Japonica rice [1] (Rate 8 g/ha), 15; in the test on Japonica rice [1] (Rate 16 g/ha), 20; with Japonica rice [1] (Rate 32 g/ha), 25; in the test with Japonica rice [1] (Rate 64 g/ha), 30. In addition, the “Barnyardgrass 2 plant response rating” value was 0 with barnyardgrass [2] (Rate 4 g/ha); 0 in the test on barnyardgrass [2] (Rate 8 g/ha); 30 in the test on barnyardgrass [2] (Rate 16 g/ha); 40 in the test with barnyardgrass [2] (Rate 32 g/ha); 60 in the test with barnyardgrass [2] (Rate 64 g/ha). In addition, the “Duck salad plant response rating” value with duck salad (Rate 4 g/ha), in the test on duck salad (Rate 8 g/ha), in the test on duck salad (Rate 16 g/ha), with duck salad (Rate 32 g/ha) and in the test on duck salad (Rate 64 g/ha) was 0 in each case. For the same compound, the “Umbrella sedge plant response rating” value with umbrella sedge (Rate 4 g/ha) is listed as 0; with umbrella sedge (Rate 8 g/ha), 0; in the test on umbrella sedge (Rate 16 g/ha), 20; in the test with umbrella sedge (Rate 32 g/ha), 65; with umbrella sedge (Rate 64 g/ha), 75. The “Arrowhead plant response rating” value in the test on arrowhead (Rate 4 g/ha) is 50; in the test on arrowhead (Rate 8 g/ha), 60; in the test with arrowhead (Rate 16 g/ha) it was 85; in the test with arrowhead (Rate 32 g/ha), 100; in the test with arrowhead (Rate 64 g/ha), 100.
Turning to `C=CCN1C(=O)COc2cc(F)c(-c3nn4c(c3Br)CCCC4)cc21` [Compound 41], the “Japonica 1 plant response rating” value with Japonica rice [3] (Rate 8 g/ha) was 25; in the test with Japonica rice [3] (Rate 16 g/ha), 35; in the test on Japonica rice [3] (Rate 32 g/ha) it was 45; in the test with Japonica rice [3] (Rate 64 g/ha) it was 65; in the test with Japonica rice [3] (Rate 125 g/ha) it was 95. In addition, the “Japonica 2 plant response rating” value with Japonica rice [3] (Rate 8 g/ha) was 15; in the test with Japonica rice [3] (Rate 16 g/ha) it was 20; with Japonica rice [3] (Rate 32 g/ha) it was 30; with Japonica rice [3] (Rate 64 g/ha) it was 45; in the test on Japonica rice [3] (Rate 125 g/ha), 55. Moreover, the “Barnyardgrass 2 plant response rating” value with barnyardgrass [4] (Rate 8 g/ha) is reported as 25; with barnyardgrass [4] (Rate 16 g/ha), 30; in the test on barnyardgrass [4] (Rate 32 g/ha), 55; in the test with barnyardgrass [4] (Rate 64 g/ha), 65; in the test with barnyardgrass [4] (Rate 125 g/ha) it was 98. Also, the “Barnyardgrass 3 plant response rating” value with barnyardgrass [4] (Rate 8 g/ha) came out at 20; in the test on barnyardgrass [4] (Rate 16 g/ha), 25; in the test with barnyardgrass [4] (Rate 32 g/ha), 35; in the test on barnyardgrass [4] (Rate 64 g/ha) it was 45; in the test with barnyardgrass [4] (Rate 125 g/ha), 55.
